From ChEMBL document CHEMBL1140273, “Carbonic anhydrase inhibitors: novel sulfonamides incorporating 1,3,5-triazine moieties as inhibitors of the cytosolic and tumour-associated carbonic anhydrase isozymes I, II and IX” (Bioorg Med Chem Lett, 2005) come the findings set out here.

Structures are written as SMILES.

This test addresses Carbonic anhydrase 9 (Homo sapiens, UniProt Q16790).
As for `NS(=O)(=O)c1ccc(CCNc2nc(Cl)nc(NCC(=O)O)n2)cc1`, the inhibition constant Ki came to 1 nM.

As to `CC(C)Nc1nc(NCc2ccc(S(N)(=O)=O)cc2)nc(NC(C)C)n1`, affinity was put at a Ki of 16 nM.

For `CCN(CC)c1nc(NCc2ccc(S(N)(=O)=O)cc2)nc(N(CC)CC)n1`, the Ki is 7.5 nM.

`CCCNc1nc(NCCC)nc(Nc2ccc(S(N)(=O)=O)cc2)n1`: the affinity corresponds to a Ki of 56 nM. Turning to `NS(=O)(=O)c1ccc(Nc2nc(Oc3ccccc3)nc(Oc3ccccc3)n2)cc1`, the Ki was found to be 254 nM.

Broadly, the Ki is the dissociation constant of the complex between target and ligand, obtained from inhibition or displacement. High values mean a looser hold on the target, low ones a stronger hold on the target.
